pIC50, pKi: −log10 of the molar value.
Legend:
[1] = molecular target: T1, Deoxyuridine triphosphatase (Trypanosoma cruzi (strain CL Brener), UniProt Q4DI50); test: Inhibition of Trypanosoma cruzi dUTPase at 1 mM
T1 sequence (Q4DI50 whole entry): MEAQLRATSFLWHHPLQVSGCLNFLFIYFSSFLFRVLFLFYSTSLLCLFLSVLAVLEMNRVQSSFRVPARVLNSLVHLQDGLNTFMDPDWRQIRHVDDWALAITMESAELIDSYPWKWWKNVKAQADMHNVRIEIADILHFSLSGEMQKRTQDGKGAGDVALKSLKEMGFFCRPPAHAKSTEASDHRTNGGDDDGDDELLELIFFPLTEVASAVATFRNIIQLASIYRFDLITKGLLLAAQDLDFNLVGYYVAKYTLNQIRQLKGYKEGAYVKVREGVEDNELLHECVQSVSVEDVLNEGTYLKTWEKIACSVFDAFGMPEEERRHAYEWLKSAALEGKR

[2] = test system: Trypanosoma cruzi; test: Antitrypanosomal activity against Trypanosoma cruzi; format: functional, organism-based
[3] = test system: L6; test: Cytotoxicity against rat L6 cells; format: functional, cell-based

pKi [1]	pIC50 [2]	SMILES	pIC50 [3]
< 3.00	< 4.12	O=C(Cn1ccc(=O)[nH]c1=O)NCC(=O)N[C@@H](Cc1ccc(O)cc1)C(=O)O	< 3.64
< 3.00	< 4.00	C[C@H](NC(=O)Cn1ccc(=O)[nH]c1=O)C(=O)NCC(=O)O	< 3.52
< 3.00	< 4.09	C[C@H](NC(=O)Cn1ccc(=O)[nH]c1=O)C(=O)N[C@@H](CCC(N)=O)C(=O)O	< 3.61
< 3.00	< 4.06	C[C@H](NC(=O)Cn1ccc(=O)[nH]c1=O)C(=O)N[C@H](C(=O)O)[C@@H](C)O	< 3.58
–	5.98	O=C(Cn1ccnc1[N+](=O)[O-])NCc1ccccc1 [BENZNIDAZOLE]	–
< 3.00	< 4.08	C[C@H](NC(=O)Cn1ccc(=O)[nH]c1=O)C(=O)N[C@@H](CC(=O)O)C(=O)O	< 3.60
< 3.00	< 4.09	C[C@H](NC(=O)Cn1ccc(=O)[nH]c1=O)C(=O)N[C@@H](CCCCN)C(=O)O	< 3.61
–	–	COc1cc([C@@H]2c3cc4c(cc3[C@H](O)[C@H]3COC(=O)[C@H]23)OCO4)cc(OC)c1OC [PODOFILOX]	6.82
< 3.00	< 4.08	NCCCC[C@H](NC(=O)CNC(=O)Cn1ccc(=O)[nH]c1=O)C(=O)O	< 3.60
< 3.00	< 3.88	O=C(O)CNC(=O)Cn1ccc(=O)[nH]c1=O	< 3.40
4.74	–	O=c1ccn([C@H]2C[C@H](O)[C@@H](COP(=O)(O)O)O2)c(=O)[nH]1 [DEOXYURIDINE MONOPHOSPHATE]	–
< 3.00	< 4.09	C[C@H](NC(=O)Cn1ccc(=O)[nH]c1=O)C(=O)N[C@@H](CCC(=O)O)C(=O)O	3.68
< 3.00	< 4.13	C[C@H](NC(=O)Cn1ccc(=O)[nH]c1=O)C(=O)N[C@@H](Cc1ccc(O)cc1)C(=O)O	3.67
< 3.00	< 4.04	C[C@@H](O)[C@H](NC(=O)CNC(=O)Cn1ccc(=O)[nH]c1=O)C(=O)O	< 3.56
